The text below walks through data of US20220315621A1, “COMPOSITIONS AND METHODS FOR TREATING CNS DISORDERS” (priority 2017, published 2022).

The IC50 is the midpoint of a concentration-inhibition curve.

Test [1] addresses GABAA receptor (rat brain cortical membranes, [35S]-TBPS binding). Conditions: Table I-4; rat brain cortical membranes, 3 nM [35S]-TBPS, in the presence of 5 mM GABA.
Another test has as its target TBPS binding. Put plainly: Steroid inhibition of TBPS binding. Conditions: Table II-2; read-out: TBPS IC50 (μm).

SMILES strings stand for the structures.

As for `COC[C@]1(O)CC[C@H]2[C@H](CC[C@@H]3[C@@H]2CC[C@]2(C)[C@@H](OC)CCC[C@@H]32)C1` [I-N11a, (2S,4aS,4bR,6aS,7S,10aS,10bR,12aR)-7-methoxy-2-(methoxymethyl)-6a-methyloctadecahydrochrysen-2-ol], in test [1], the concentration for half-maximal inhibition (IC50) is 1 to 10 µM.
With `CCOC[C@@]1(O)CC[C@H]2[C@H](CC[C@@H]3[C@@H]2CC[C@]2(C)[C@@H](C(=O)N4CCCC[C@@H]4C)CCC[C@@H]32)C1` [I-P9, ((1S,4aS,4bR,6aR,8R,10aS,10bR,12aS)-8-(ethoxymethyl)-8-hydroxy-12a-methyloctadecahydrochrysen-l-yl)((S)-2-methylpiperidin-1-yl)methanone], in test [1], the concentration for half-maximal inhibition (IC50) was in the range of 0.1 to 1 µM.
Same read-out and setting: under `CC(=O)[C@H]1CC[C@H]2[C@@H]3CC[C@@H]4C[C@](C)(O)CC[C@@H]4[C@H]3CC[C@]2(C)C1` [I-R14, 1-((2S,4aS,4bR,6aR,8R,10aS,10bR,12aR)-8-hydroxy-8,12a-dimethyloctadecahydrochrysen-2-yl)ethan-1-one] stands 0.1 to 1 µM.
As for `C[C@@]1(O)CC[C@H]2[C@H](CC[C@@H]3[C@@H]2CC[C@]2(C)C[C@@H](C(=O)Cn4cc(C#N)cn4)CC[C@@H]32)C1` [I-R17, 1-(2-((2S,4aS,4bR,6aR,8R,10aS,10bR,12aR)-8-hydroxy-8,12a-dimethyloctadecahydrochrysen-2-yl)-2-oxoethyl)-1H-pyrazole-4-carbonitrile], the concentration for half-maximal inhibition (IC50) in test [1] was in the range of 1 to 10 µM.
Consider `C[C@@]1(O)CC[C@H]2[C@H](CC[C@@H]3[C@@H]2CC[C@]2(C)C[C@H](C(=O)Cn4cc(C#N)cn4)CC[C@@H]32)C1` [I-R17a, 1-(2-((2R,4aS,4bR,6aR,8R,10aS,10bR,12aR)-8-hydroxy-8,12a-dimethyloctadecahydrochrysen-2-yl)-2-oxoethyl)-1H-pyrazole-4-carbonitrile], for which the half-inhibitory concentration (IC50) in test [1] lay in the range of 1 to 10 µM.
Consider `C[C@@]1(O)CC[C@H]2[C@H](CC[C@@H]3[C@@H]2CC[C@]2(C)C[C@@H](C(=O)c4ccccc4)CC[C@@H]32)C1` [I-R21, ((2S,4aS,4bR,6aR,8R,10aS,10bR,12aR)-8-hydroxy-8,12a-dimethyloctadecahydrochrysen-2-yl)(phenyl)methanone], for which the IC50 in test [1] fell in the range of 0.1 to 1 µM.
Take `CCOC[C@@]1(O)CC[C@H]2[C@@H](CC[C@@H]3[C@@H]2CC[C@]2(C)[C@@H](C(C)=O)CCC[C@@H]32)C1` [I-S3, 1-((1S,4aS,4bR,6aS,8R,10aS,10bR,12aS)-8-(ethoxymethyl)-8-hydroxy-12a-methyloctadecahydrochrysen-1-yl)ethan-1-one]: the IC50 in test [1] lay within 0.1 to 1 µM.
Turning to `CC(=O)[C@H]1CC[C@H]2[C@@H]3CC[C@H]4C[C@H](O)CCC[C@]4(C)[C@H]3CC[C@]12C` [II-B5, 1-((1S,3aS,3bR,5aS,7R,10aS,10bS,12aS)-7-hydroxy-10a,12a-dimethyloctadecahydrocyclohepta[a]cyclopenta[f]naphthalen-1-yl)ethan-1-one], at TBPS binding, the IC50 was in the range of 0.1 to 1 µM.
Take `CC(=O)[C@H]1CC[C@H]2[C@@H]3CC=C4CC[C@](C)(O)CC[C@]4(C)[C@H]3CC[C@]12C` [II-C2a, 1-((1S,3aS,3bS,8S,10aR,10bS,12aS)-8-hydroxy-8,10a,12a-trimethyl-1,2,3,3a,3b,4,6,7,8,9,10,10a,10b,11,12,12a-hexadecahydrocyclohepta[a]cyclopenta[f]naphthalen-1-yl)ethan-1-one]: the IC50 on TBPS binding was in the range of 0.01 to 0.1 µM.
For the compound `CC(=O)[C@H]1CC[C@H]2[C@@H]3CC=C4CC[C@@](C)(O)CC[C@]4(C)[C@H]3CC[C@]12C` [II-C2b, 1-((1S,3aS,3bS,8R,10aR,10bS,12aS)-8-hydroxy-8,10a,12a-trimethyl-1,2,3,3a,3b,4,6,7,8,9,10,10a,10b,11,12,12a-hexadecahydrocyclohepta[a]cyclopenta[f]naphthalen-1-yl)ethan-1-one], the IC50 at TBPS binding is 1 to 10 µM.
For the compound `CC(=O)[C@H]1CC[C@H]2[C@@H]3CC[C@H]4CC[C@](C)(O)CC[C@]4(C)[C@H]3CC[C@]12C` [II-C3, 1-((1S,3aS,3bR,5aS,8S,10aS,10bS,12aS)-8-hydroxy-8,10a,12a-trimethyloctadecahydrocyclohepta[a]cyclopenta[f]naphthalen-1-yl)ethan-1-one], on TBPS binding, the half-inhibitory concentration (IC50) was 0.01 to 0.1 µM.
Turning to `C[C@@]1(O)CC[C@@H]2CC[C@@H]3[C@H](CC[C@]4(C)[C@@H](C(=O)Cn5cc(C#N)cn5)CC[C@@H]34)[C@@]2(C)CC1` [II-C8, 1-(2-((1S,3aS,3bR,5aS,8R,10aS,10bS,12aS)-8-hydroxy-8,10a,12a-trimethyloctadecahydrocyclohepta[a]cyclopenta[f]naphthalen-1-yl)-2-oxoethyl)-1H-pyrazole-4-carbonitrile], the 50% inhibitory concentration (IC50) on TBPS binding lay in the range of 0.1 to 1 µM.
For the compound `Cc1nnnn1CC(=O)[C@H]1CC[C@H]2[C@@H]3CC[C@H]4CC[C@](C)(O)CC[C@]4(C)[C@H]3CC[C@]12C` [II-C10, 1-((1S,3aS,3bR,5aS,8S,10aS,10bS,12aS)-8-hydroxy-8,10a,12a-trimethyloctadecahydrocyclohepta[a]cyclopenta[f]naphthalen-1-yl)-2-(5-methyl-1H-tetrazol-1-yl)ethan-1-one], at TBPS binding, the half-maximal inhibitory concentration (IC50) was in the range of 0.1 to 1 µM.
`Cc1nnn(CC(=O)[C@H]2CC[C@H]3[C@@H]4CC[C@H]5CC[C@](C)(O)CC[C@]5(C)[C@H]4CC[C@]23C)n1` [II-C11, 1-((1S,3aS,3bR,5aS,8S,10aS,10bS,12aS)-8-hydroxy-8,10a,12a-trimethyloctadecahydrocyclohepta[a]cyclopenta[f]naphthalen-1-yl)-2-(5-methyl-2H-tetrazol-2-yl)ethan-1-one]: on TBPS binding, the half-maximal inhibitory concentration (IC50) lay in the range of 0.01 to 0.1 µM.
In the case of `CC(=O)[C@H]1CC[C@H]2[C@@H]3CC=C4C[C@](C)(O)CCC[C@]4(C)[C@H]3CC[C@]12C` [II-D2a, 1-((1S,3aS,3bS,7R,10aR,10bS,12aS)-7-hydroxy-7,10a,12a-trimethyl-1,2,3,3a,3b,4,6,7,8,9,10,10a,10b,11,12,12a-hexadecahydrocyclohepta[a]cyclopenta[f]naphthalen-1-yl)ethan-1-one], the 50% inhibitory concentration (IC50) on TBPS binding was 1 to 10 µM.
The same measure, in the same setting: under `CC(=O)[C@H]1CC[C@H]2[C@@H]3CC[C@H]4C[C@](C)(O)CCC[C@]4(C)[C@H]3CC[C@]12C` [II-D3a, 1-((1S,3aS,3bR,5aS,7R,10aS,10bS,12aS)-7-hydroxy-7,10a,12a-trimethyloctadecahydrocyclohepta[a]cyclopenta[f]naphthalen-1-yl)ethan-1-one] stands 1 to 10 µM; under `C[C@@]1(O)CCC[C@@]2(C)[C@@H](CC[C@@H]3[C@@H]2CC[C@]2(C)[C@@H](C(=O)Cn4cc(C#N)cn4)CC[C@@H]32)C1` [II-D5a, 1-(2-((1S,3aS,3bR,5aS,7R,10aS,10bS,12aS)-7-hydroxy-7,10a,12a-trimethyloctadecahydrocyclohepta[a]cyclopenta[f]naphthalen-1-yl)-2-oxoethyl)-1H-pyrazole-4-carbonitrile], 0.01 to 0.1 µM.
As to `C[C@]1(O)CCC[C@@]2(C)[C@@H](CC[C@@H]3[C@@H]2CC[C@]2(C)[C@@H](C(=O)Cn4cc(C#N)cn4)CC[C@@H]32)C1` [II-D5b, 1-(2-((1S,3aS,3bR,5aS,7S,10aS,10bS,12aS)-7-hydroxy-7,10a,12a-trimethyloctadecahydrocyclohepta[a]cyclopenta[f]naphthalen-1-yl)-2-oxoethyl)-1H-pyrazole-4-carbonitrile], the IC50 at TBPS binding was 0.1 to 1 µM.
Take `CC(=O)[C@H]1CC[C@H]2[C@@H]3CC[C@@H]4CCC(=O)CC[C@@H]4[C@H]3CC[C@]12C` [II-E7a, (1S,3aS,3bR,5aR,10aS,10bR,12aS)-1-acetyl-12a-methylhexadecahydrocyclohepta[a]cyclopenta[f]naphthalen-8(1H)-one]: the half-maximal inhibitory concentration (IC50) at TBPS binding was 1 to 10 µM.
`CC(=O)[C@H]1CC[C@H]2[C@@H]3CC[C@@H]4CC(=O)CCC[C@@H]4[C@H]3CC[C@]12C` [II-E7b, (1 S,3aS,3bR,5aR,10aS,10bR,12aS)-1-acetyl-12a-methylhexadecahydrocyclohepta[a]cyclopenta[f]naphthalen-7(1H)-one]: the IC50 on TBPS binding lay within 1 to 10 µM.
The same measure, in the same setting: under `CC(=O)[C@H]1CC[C@H]2[C@@H]3CC[C@@H]4C[C@](C)(O)CCC[C@@H]4[C@H]3CC[C@]12C` [II-E8a, 1-((1S,3aS,3bR,5aR,7R,10aS,10bR,12aS)-7-hydroxy-7,12a-dimethyloctadecahydrocyclohepta[a]cyclopenta[f]naphthalen-1-yl)ethan-1-one] stands 0.01 to 0.1 µM; under `C[C@]1(O)CCC[C@H]2[C@H](CC[C@@H]3[C@@H]2CC[C@]2(C)[C@@H](C(=O)Cn4cc(C#N)cn4)CC[C@@H]32)C1` [II-E10, 1-(2-((1S,3aS,3bR,5aR,7S,10aS,10bR,12aS)-7-hydroxy-7,12a-dimethyloctadecahydrocyclohepta[a]cyclopenta[f]naphthalen-1-yl)-2-oxoethyl)-1H-pyrazole-4-carbonitrile], 0.1 to 1 µM.
On the same count and under the same terms, the value for `C[C@@]1(O)CCC[C@H]2[C@H](CC[C@@H]3[C@@H]2CC[C@]2(C)[C@@H](C(=O)Cn4cc(C#N)cn4)CC[C@@H]32)C1` [II-E10a, 1-(2-((1S,3aS,3bR,5aR,7R,10aS,10bR,12aS)-7-hydroxy-7,12a-dimethyloctadecahydrocyclohepta[a]cyclopenta[f]naphthalen-1-yl)-2-oxoethyl)-1H-pyrazole-4-carbonitrile] was 0.01 to 0.1 µM; that for `C[C@]1(O)CCC2=CC[C@H]3[C@@H]4CC[C@H](C(=O)Cn5cc(C#N)cn5)[C@@]4(C)CC[C@@H]3[C@@]2(C)CC1` [II-F3, 1-(2-((1S,3aS,3bS,8S,10aR,10bS,12aS)-8-hydroxy-8,10a,12a-trimethyl-1,2,3,3a,3b,4,6,7,8,9,10,10a,10b,11,12,12a-hexadecahydrocyclohepta[a]cyclopenta[f]naphthalen-1-yl)-2-oxoethyl)-1H-pyrazole-4-carbonitrile] was < 0.01 µM.
